This note sets out measurements from ChEMBL document CHEMBL4673390, “Discovery of Aminopyrazole Derivatives as Potent Inhibitors of Wild-Type and Gatekeeper Mutant FGFR2 and 3” (ACS Med Chem Lett, 2021).

For orientation: half-life means the time in which the quantity being followed falls by half. The Papp A→B is the apparent permeability from the apical to the basolateral side of a cell layer. The low end stands for slow passage, the high end for fast passage. For orientation: Cmax means the maximum level reached in the sampled fluid or tissue. The term bioavailability denotes the share of a dose that reaches the circulation, judged against a reference dose that is usually intravenous. Read a high bioavailability as much systemic uptake. The AUC is the area under the concentration-time curve, a measure of exposure. As usually defined, the clearance is a measure of how efficiently the substance is removed, as volume per time. Higher therefore signals a high capacity for elimination. One may read the Vd as the apparent volume that relates the amount in the body to the concentration in plasma or blood. The low end stands for confinement near the circulation, the high end for extensive tissue distribution.

The nature of series [1]: in vitro. Conditions: mouse, blood.
Series [2] can be described thus: in vitro. Conditions: human, Caco-2.
Series [3] in a line: in vitro. Conditions: human, blood.
Series [4] is described as follows: in vivo. Conditions: CD-1, mouse, po, 10 mg/kg.
Series [5] in a line: in vivo. Conditions: CD-1, mouse, po, 10 mg/kg. This is another data set of the same source.
Series [6] is described as follows: in vivo. Conditions: CD-1, mouse, po, 10 mg/kg. The source holds these as a separate data set.
A short description of series [7]: in vivo. The following applies: CD-1, mouse, iv, 5 mg/kg.
A short description of series [8]: in vivo. Conditions: CD-1, mouse, iv, 5 mg/kg. The source holds these as a separate data set.

Turning to `C=CC(=O)Nc1ccc(CCc2nc(Nc3cc(C)[nH]n3)cc(N3CCN(C)CC3)n2)cc1`, the figures for the half-life at 2 h, 2 µM in series [1] and in series [3] were 2.62 h and 4.12 h, respectively. In series [2], this compound had a Papp A→B at 2 h of 0.3 ×10⁻⁶ cm/s.

For the compound `C=CC(=O)Nc1ccc(/C=C/c2nc(Nc3cc(C(C)C)[nH]n3)cc(N3CCN(C)CC3)n2)cc1`, the half-life at 2 h, 2 µM in series [1] came to 1.9 h; in series [3], 2.02 h. The compound further displayed a Papp A→B at 2 h in series [2] of 0.1 ×10⁻⁶ cm/s. In addition, the peak concentration (Cmax) at 24 h in series [4] is 103 ng/mL. For the same compound, the bioavailability at 24 h in series [5] is 21%. Further, the exposure (AUC) at 24 h in series [6] was 400 ng·h/mL. In addition, the clearance at 24 h in series [7] amounted to 86.3 mL/min/kg. In series [8], this compound showed a volume of distribution (Vd) at 24 h of 3.1 L/kg.

Turning to `C=CC(=O)N1CCC2(CCN(c3nc(Nc4cc(C(C)C)[nH]n4)cc(N4CCN(C)CC4)n3)CC2)C1`, the half-life at 2 h, 2 µM came to 2.73 h in series [1] and 3.03 h in series [3]. For the same compound, the apparent permeability from apical to basolateral (Papp A→B) at 2 h in series [2] came to 0.2 ×10⁻⁶ cm/s.
